{"source": "patent US9057054B2", "about": "“Antigen-specific long-term memory T-cells” (THE REGENTS OF THE UNIVERSITY OF MICHIGAN, priority 2009, dated 2015)", "key": {"[1]": {"test_system": "antigen-primed CD8+ T cells", "test": "Secondary culture in the absence of IL-2 (IL-2 withdrawal), live cell ratio, with or without oligomycin", "assay_type": "cell-based, mouse"}, "[2]": {"test_system": "antigen-primed CD8+ T cells", "test": "Oxygen consumption and lactate production assay, share of ATP from oxidative phosphorylation and glycolysis"}, "[3]": {"test_system": "P14 naive CD44loCD8+ T cells", "test": "In vitro priming of CFSE-labeled P14 naive CD8+ T cells with gp33-pulsed DCs, IL-2 and titrated rapamycin: cell counts, CFSE division, live cell ratio", "assay_type": "cell-based, mouse", "details": "day 8 after culture, 50 or 100 nM rapamycin"}}}
{"compound": "CO[C@H]1C[C@@H]2CC[C@@H](C)[C@@](O)(O2)C(=O)C(=O)N2CCCC[C@H]2C(=O)O[C@H]([C@H](C)C[C@@H]2CC[C@@H](O)[C@H](OC)C2)CC(=O)[C@H](C)/C=C(\\C)[C@@H](O)[C@@H](OC)C(=O)[C@H](C)C[C@H](C)/C=C/C=C/C=C/1C", "note": "[rapamycin]", "values": [{"measurement": "viable cells after IL-2 withdrawal", "setting": "[1]; by 24 hours after IL-2 withdrawal", "value": "Approximately 100%"}, {"measurement": "cells remaining lived after IL-2 withdrawal", "setting": "[1]; by 74 hours after withdrawal", "value": "more than 60%"}, {"measurement": "oxygen consumption increase versus IL-2 CD8+ T cells", "setting": "[2]; cells collected 6 days after culture", "value": 2, "unit": "fold"}, {"measurement": "ATP derived from oxidative phosphorylation metabolism", "setting": "[2]; share of total ATP generation", "value": "more than 90%"}, {"measurement": "dead cells", "setting": "[3]", "value": "less than 5%"}]}
